Reference: patent publication US4956381A, “Treating tissue calcium depletion or degenerative processes in bone or cartilage” (Sandoz Ltd., priority 1987, dated 1990)
Like-named read-outs stand apart in the source and are kept apart here.

Tests used:
[1] = system: IL-1; test: IL-1 induced secretion of metalloproteinase (MP) in chondrocytes; assay type: cell-based; settings: 2 days incubation
Experimental: Furthermore the influence on IL-1 induced secretion of MP is determined using chondrocytes as a target system for IL-1. IL-1 (Genzyme Corporation,USA) is added with or without a COMPOUND OF THE INVENTION or Dexamethasone (control) to chondrocytes and the activity or metalloproteinase is determined in the supernatant media of 2 days incubation period.

[2] = system: IL-1β; test: RIA-Kit IL-1 quantification in human monocyte cultures; assay type: cell-based
Experimental: (§1) Mononuclear cells are obtained from the blood of healthy volunteers via centrifugation and cultivated on tissue culture dishes with test compound at varying concentrations [Schnyder et al., J. Immunol., 138, 496-503 (1987)]. The non-adherent lymphocytes are removed after 4 hours by washing several times. Fresh medium, test compound and lipopolysaccharide (LPS) as stimulant are added and the monocytes incubated for further 19 hours. The pooled culture media are diluted 1:10 (v:v) with fresh medium and added to confluent rabbit chondrocytes. MP activity in the chondrocyte culture medium is assayed after a further 2 days. COMPOUNDS OF THE INVENTION, in particular compounds D2 and K1, are active in suppressing monokine release in the above test method at concentrations of the order of from about 30 to about 100 μM. Thus determined ED50 S for the compounds D2 and K1 each in substantially pure Z-isomeric form in a series of 3 or 7 separate experiments each with 3 parallel determinations are, for both compounds, of the order of 60 to 100 μM.
The procedures of example 1.1.b. above are repeated and IL-1 concentrations in recovered, undiluted culture medium determined employing a CISTRON IL-1 radioimmuno assay kit (the CISTRON kit is obtainable from Cistron, 10, Bloomfield Avenue, P.O. Box 2004, Pine Brook, NJ 07 058 USA. It is IL-1β specific and recognises both intra- and extra-cellular material).

[3] = system: lysosomal enzyme N-acetyl-glucose-aminidase; test: Prevention of bone resorption: N-acetyl-glucose-aminidase release from calvaria; assay type: cell-based, Swiss albino mice; settings: Mus musculus, read-out: IC50 N-acetylglucose-aminidase
Experimental: Calvaria halves (frontal and parietal parts) from 4-5 day Swiss albino mice are cultured on stainless steel grids in BGJ bone tissue culture medium, supplemented with 1 mg/ml BSA at the interphase of medium and gas in a humidified atmosphere (95% air/5% CO2 ) at 37° C. - c.f. Reynolds et al. in "Organ Culture in Biomed. Res." eds. Balls and Mamichendam, Cambridge University Press, p.p. 355-366 (1976).
Influence of test substance at varying concentrations on calcium release into :he test medium in the presence of calcium release stimulators [PGE2, LPS or […] (1,25D3)]is determined. For this purpose calcium concentrations are measured in bone culture supernatants obtained from 72 and 144 hour cultures and in TCA extracts of the calvaria at the end of culture by spectrometric methods [Gindler et al., Am. J. Clin. Pathol. 58, 376-382 (1972)]. Activity of lysosomal enzyme N-acetyl-glucose-aminidase in bone culture supernatants and in Triton 100 extracts of calvaria after culture is also determined employing the method of Banerjee and Basu, Biochem. J., 45, 113-118 (1975). Changes in enzyme activity are expressed as μ units/calvarium half and as % release.
(For the calculation of IC50 values the difference between resorption rate in control cultures and resorption in maximally stimulated cultures is taken as 100 %. The IC50 is taken as the concentration of test substance which inhibits maximum resorption by 50 %)

[4] = system: psoriatic arthritis or seronegative spondylarthrosis or osteoarthrosis; test: Clinical trial IV: degenerative joint disease; assay type: in vivo, human; settings: ca. 200 to 1200 mg p.o./day, 8 weeks
Experimental: COMPOUND OF THE INVENTION, e.g. compound D2 or K1 in substantially pure Z-isomeric form, is administered at dosages of from ca. 200 to 1200 mg/p.o./day, once or in divided dosages up to 4×daily for 8 weeks. The subjects are examined at a regular interval of 2 weeks for disease progression on parameters such as pain sensation at the joints, evaluation of the functional capacity according to Steinbrocker, hand grip strength or Richtie Index.

[5] = system: human monocytes; test: LAF-test (thymocyte proliferation), monokine production by human monocytes; assay type: cell-based; settings: Monocyte, substantially pure Z-isomeric form, 2 separate experiments, 3 parallel determinations, read-out: ED50 (inhibition of monokine production)
Experimental: as §1
Lymphocyte proliferation is the standard test for monokine activity. […] The cells are incubated for 2 days in 96-well culture plates and the proliferation rate determined using a ^3 H-thymidine pulse (1 μC/well) during the final 6 hours. The incorporated radioactivity is collected on filter paper and counted. […]

[6] = system: IL-1; test: Effect on IL-1 synthesis and release (supernatants, homogenates, lysates of human monocytes); assay type: cell-based; settings: chondrocyte bioassay and RIA
Experimental: 0.3 ml Phosphate-buffered saline, containing 1 % heat-in-activated AB-human serum, is added to washed adherent human monocytes and the cells are detached using a rubber-policeman. The solution containing the cells is then transferred to two other wells belonging to the same group. This procedure is repeated three times. The final pooled suspension (0.9 ml) is homogenized using a Dounce homogenizer (Kontes Co, Vineland, NJ) by five times 7 strokes with the B-pestle.
The lysate is prepared by adding to the washed human monocyte monolayers 0.3 ml 0.01 % digitonin in water.
50 μl homogenate is diluted to 500 μl with medium and added to confluent chondrocytes to monitor the metalloproteinase inducing activity as a measure of IL-I content.
The content of IL-1 was also determined in the culture media and the cell homogenates and cell lysates using the RIA-test (see 1.3.).

[7] = system: pulmonary fibrosis; test: Pulmonary fibrosis (bleomycin induced); assay type: in vivo, New Zealand white rabbits; settings: ca. 2.5 to 60 mg/kg/day p.o.; substantially pure Z-isomeric form; vs placebo
Experimental: Testing is carried out in accordance with the general methodology described by G. J. Laurent et al. in Eur. J. Clin. Invest. (1981) 11, 441-448. Pulmonary fibrosis is induced in groups of 4 New Zealand white rabbits (aged 127 days at commencement of the experiment), each weighing 2.0-2.5 kg, by intratracheal instillation of 10 mg/kg bleomycin. The lungs of test animals are examined 2, 4 and 8 weeks later.

[8] = CISTRON IL-1 radioimmuno assay, human monocytes

Structure (SMILES): COC1=Cc2ccccc2/C(=C/C(=O)O)c2ccsc21 [Compound D2, [10-Methoxy-4H-benzo[4,5]cyclohepta[1,2-b]thiophen-4-ylidene]-acetic acid]
- influence on IL-1 induced secretion of MP [1]: do not influence the IL-1 induced secretion of MP
- extra-cellular IL-1 level [2, 8]: extra-cellular content is reduced significantly
- intracellular IL-1 level [2, 8]: remain substantially unaffected
- IC50 ([2]; Homo sapiens, Monocyte, 19 h, substantially pure Z-isomeric form, 2-8 experiments, 3 parallel determinations, read-out: ED50 for extra-cellular IL-1 level suppression): ~40 µM
- IC50 ([3]; in the presence of 1,25D3): 37 µM
- IC50 ([3]; in the presence of LPS): 8.3 µM
- IC50 ([3]; in the presence of PGE2): 7.9 µM
- condition (degenerative joint disease) [4]: improvement in condition after the 8 week treatment period
- IC50 [5]: ~30 µM
- levels of IL-1 in the supernatant media [6]: significantly reduce the levels of IL-1 in the supernatant media
- mean cellular content of IL-1 ([6]; homogenates and lysates): only slightly reduced or remains unchanged
- pulmonary fibrosis [7]: substantial reduction of pulmonary fibrosis
